Patent US20040116451A1, “Method of treatment” (Pfizer Inc., priority 2002, published 2004)

System: men with lower urinary tract symptoms
Test: 12-Week double-blind study in men with lower urinary tract symptoms (IPSS and bladder diary)
Assay type: in vivo
Conditions: for improvement in IPSS irritative domain: subjects with baseline IPSS irritative domain score ≧β; for improvement in IPSS irritative domain / improvement in irritative LUTS (urgency, daytime micturition frequency, nocturia; bladder diary): controlled release formulation, 12 weeks; for improvement in irritative LUTS (urgency, daytime micturition frequency, nocturia; bladder diary): subjects with irritative LUTS at baseline, compared with placebo
Procedure: A 12-Week Study in men with lower urinary tract symptoms was undertaken in which the IPSS (International Prostate Symptom Score) was recorded at baseline during, and at the end of, double-blind treatment. The IPSS is composed of seven questions, each with potential responses of 0-5 on a Likert scale. These questions are grouped into two validated domains: the irritative domain (urgency, frequency and nocturia) and the obstructive domain (incomplete emptying, intermittency, weak stream and straining to begin). […] The average daily incidence of urgency, daytime micturition frequency and nocturia (the irritative symptoms) for each subject were derived from this diary. In this study, there were […] treatment groups: 6 mg fixed dose of 4-amino-6,7-dimethoxy-2-(5-methanesulfonamido-1,2,3,4-tetrahydroisoquinol-2-yl)-5-(2-pyridyl)quinazoline, 6 mg escalated to 12 mg at Week 4 of the compound, and placebo. Controlled release formulations according to International Application Publication No. WO 03/032956 were used in each case.

[1] = 12 mg dose escalation group (6 mg escalated to 12 mg at Week 4)

COc1cc2nc(N3CCc4c(cccc4NS(C)(=O)=O)C3)nc(N)c2c(-c2ccccn2)c1OC [4-amino-6,7-dimethoxy-2-(5-methanesulfonamido-1,2,3,4-tetrahydroisoquinol-2-yl)-5-(2-pyridyl)quinazoline]
attenuation of irritative LUTS (overall study result, FIGS. 1 to 4) (12-week study in men with LUTS, controlled release formulations): clinically significant attenuation of irritative LUTS
improvement in IPSS irritative domain (6 mg fixed dose group): improvement in this domain of the IPSS was similarly confirmed
improvement in IPSS irritative domain [1]: improvement in this domain of the IPSS was similarly confirmed
improvement in irritative LUTS (urgency, daytime micturition frequency, nocturia; bladder diary) (6 mg fixed dose group): improvement in these symptoms was confirmed
improvement in irritative LUTS (urgency, daytime micturition frequency, nocturia; bladder diary) [1]: improvement in these symptoms was confirmed
